Values quoted from earlier work, collected in PMC4959786 (Clinical immunology (Orlando, Fla.), 2015).

Target: I-A^q (Mus musculus, UniProt P04227+P06342)
Conditions: result in words, earlier work

Chain of I-A^q (P04227 whole entry, looked up): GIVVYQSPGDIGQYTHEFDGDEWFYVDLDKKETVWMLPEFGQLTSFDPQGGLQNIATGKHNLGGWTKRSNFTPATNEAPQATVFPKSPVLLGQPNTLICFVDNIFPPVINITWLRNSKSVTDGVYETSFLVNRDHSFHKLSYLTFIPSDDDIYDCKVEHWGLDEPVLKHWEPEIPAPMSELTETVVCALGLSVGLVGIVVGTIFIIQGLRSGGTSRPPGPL
Chain of I-A^q (P06342 whole entry, looked up): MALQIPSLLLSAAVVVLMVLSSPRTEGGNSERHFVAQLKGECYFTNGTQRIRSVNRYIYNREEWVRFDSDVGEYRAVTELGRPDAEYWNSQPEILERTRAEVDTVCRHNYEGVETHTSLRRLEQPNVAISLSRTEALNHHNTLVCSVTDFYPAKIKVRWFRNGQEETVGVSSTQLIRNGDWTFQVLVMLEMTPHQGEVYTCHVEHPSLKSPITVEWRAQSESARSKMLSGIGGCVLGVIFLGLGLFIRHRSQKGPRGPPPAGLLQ

## GEBGABGNKGEQGPKGEBGP [A9]
Ref [5], [6]
  binding to I-A^q: binds very weakly
Ref [6]
  binding affinity for I-A^q: very weak binding affinity
